# Measured values as given in publication PMC10792626 (Saudi Pharmaceutical Journal : SPJ, 2023).
# Target: α-amylase
# Assay: In vitro α-amylase inhibition assay
# Type: biochemical
# Conditions: phosphate buffer pH 6.8, 37 °C
row,IC50 α-amylase [µg/mL],Compound
1,118.4 ± 1.38,Quercetin [Compound 4]
2,177.2 ± 2.01,"C[C@@H]1O[C@@H](OC[C@H]2O[C@@H](Oc3c(-c4ccc(O)c(O)c4)oc4cc(O)cc(O)c4c3=O)[C@H](O)[C@@H](O)[C@@H]2O)[C@H](O)[C@H](O)[C@H]1O [Compound 5, Rutin]"
3,180.6 ± 2.04,"O=C(/C=C/c1ccc(O)cc1)OC[C@H]1O[C@@H](Oc2c(-c3ccc(O)cc3)oc3cc(O)cc(O)c3c2=O)[C@H](O)[C@@H](O)[C@@H]1O [Compound 2, Tiliroside]"
4,135.2 ± 1.84,"O=c1c(O)c(-c2ccc(O)cc2)oc2cc(O)cc(O)c12 [Compound 3, Kaempferol]"
